{"source": "patent US20050032724A1", "about": "(priority 2001, published 2005)", "key": {"[1]": {"tested_on": "human epithelial cervical cancer cell line KB 3-1", "assay_type": "cell-based", "method": "(§1) The human epithelial cervical cancer cell line KB 3-1 with two subclones (KB 3-1 (MDR1^+++) and KB 3-1 (MDR1^+++, CYP3A5)) and the bladder cancer cell line RT112, also with subclone (RT112 (MDR1^+, UGT1A1)), were cultured in Dulbecco's Modified Eagle Medium (DMEM) including 3.7 g/l NaHCO3, 4.5 g/l D-Glucose, 1.028 g/l N-Acetyl-L-Alanyl-L-glutamine and supplemented with 10% fetal bovine, 1 mM Na-pyruvate and 1% non-essential amino acids. The human colon cancer cell line LS174T was cultured in Dulbecco's modified Eagle medium containing L-glutamine, pyridoxine hydrochloride and 25 mM Hepes buffer without phenol red, supplemented with 10% fetal bovine, 1 mM Na-pyruvate and 1% non-essential amino acids. All cells were incubated at 37° C. with 5% CO2 in a humidified atmosphere.\n(§2) Lower concentrated dilutions were prepared in PBS and cell culture medium.\n(§3) Cells were seeded in 96-well culture plates 24 h prior to treatment. With respect to differential growth rates KB 3-1 and RT112 cells were seeded at 700 cells/well, RT112 (MDR1^+, UGT1A1) at 1000 cells/well and KB 3-1 (MDR1^+++) and KB 3-1 (MDR1^+++, CYP3A5) at 1200 cells/well. LS174T were seeded at 1.0×10^4 cells/well. […] Four well were treated with the same drug dilution. Cells were incubated for 3 days at 37° C. in a humidified 5% CO2 atmosphere.\n(§4) A commercially available MTS assay system (Promega, Madison, USA) was used to determine growth inhibition and cell death according to the instructions of the manufacturer. Three days after adding the drugs, 20 μl of the combined MTS/PMS solution was added to each well of the 96-well culture plate. The plate was incubated for at least 45 min at 37° C. in a humidified 5% CO2 atmosphere and the absorbance at 492 nm was measured. The absorbance values of untreated control cells on each plate were set as 100% growth and used to calculate the remaining growth of drug treated cells. Untreated cells on the culture plates served as controls for unaffected growth and survival.\n(§5) The drug concentration effecting a 50% inhibition of cell growth was defined as the IC50."}, "[2]": {"tested_on": "human colon cancer cell line LS174T", "assay": "MTS cytotoxicity assay, growth inhibition, LS174T", "assay_type": "cell-based", "settings": "for IC50 (50% inhibition of cell growth): LS174T, 3 days treatment", "method": "as §1, §2, §3, §4, §5"}, "[3]": {"tested_on": "bladder cancer cell line RT112", "assay": "MTS cytotoxicity assay, growth inhibition, RT112", "assay_type": "cell-based, human", "settings": "RT112, 3 days treatment", "method": "as §1, §2\nCells were seeded in 96-well culture plates 24 h prior to treatment. […]\nas §4, with “Three days after adding the drugs, 20 μl of the combined MTS/PMS solution was added to each well of the 96-well culture plate.” left out, “Untreated cells on the culture plates served as controls for unaffected growth and survival.” left out"}, "KB 3-1 (MDR1^+++) cells": {"tested_on": "KB 3-1 (MDR1^+++) cells", "method": "as §1, §2, §3, §4, §5"}, "[4]": {"tested_on": "KB 3-1 (MDR1^+++, CYP3A5) cells", "method": "as §1, §2, §3, §4, §5"}, "[5]": {"tested_on": "RT112 (MDR1, UGT1A1) cells", "settings": "for IC50 (50% inhibition of cell growth): RT112 (MDR1, UGT1A1), 3 days treatment", "method": "as §1, §2, §3, §4, §5"}, "[6]": {"assay": "Clinical study of peak plasma digoxin levels at steady state by MDR1 3435C>T genotype", "assay_type": "in vivo, human", "settings": "14 healthy volunteers, oral digoxin, p=0.006 Mann Whitney U test", "excerpt": "Furthermore, the influence of the MDR1 genotype on intestinal uptake-related pharmacokinetics of digoxin was investigated in a clinical study at the University Medical Center, Charite in Berlin. Maximal digoxin blood levels (Cmax) at steady state were correlated with the MDR1 3435C>T genotype 14 healthy volunteers after oral application of digoxin. […] (p=0.006, Mann Whitney U test) and reflects the impact of this polymorphism on digoxin pharmacokinetics."}, "MRP1 mRNA": {"tested_on": "MRP1 mRNA", "assay": "MRP1 mRNA content in duodenal biopsies before and after rifampicin", "assay_type": "in vivo, human", "settings": "healthy volunteers"}, "[7]": {"settings": "mass balance studies; cited from earlier work"}, "[8]": {"settings": "irinotecan therapy, dose-limiting toxicity; cited from earlier work"}, "[9]": {"settings": "within the first 60 days of treatment, colorectal cancer trials; cited from earlier work"}}, "note": "“Also recorded” adds a separate entry of the source. Like-named read-outs stand apart in the source and are kept apart here."}
{"compound": "COc1ccc(CCN(C)CCC[C@](C#N)(c2ccc(OC)c(OC)c2)C(C)C)cc1OC", "note": "[R-Verapamil]", "values": [{"measurement": "effect of addition of R-Verapamil on CPT-11 and SN-38 sensitivity", "setting": "[1]", "value": "only marginal effects"}]}
{"compound": "CCc1c2c(nc3ccc(O)cc13)-c1cc3c(c(=O)n1C2)COC(=O)[C@]3(O)CC", "note": "[SN-38, 7-ethyl-10-hydroxycamptothecin]", "values": [{"measurement": "IC50 (50% inhibition of cell growth)", "setting": "[2]", "value": 5, "unit": "ng/mL"}, {"measurement": "efficacy relative to CPT-11 (growth inhibition and cell death)", "setting": "[2]; stated for LS174T, RT112 and KB 3-1 together", "value": 1000, "unit": "fold"}, {"measurement": "IC50 (50% inhibition of cell growth)", "setting": "[3]", "value": 4, "unit": "ng/mL"}, {"measurement": "IC50 (50% inhibition of cell growth)", "setting": "[1]", "value": 25, "unit": "ng/mL"}, {"measurement": "IC50 with R-Verapamil", "setting": "[1]", "value": 15, "unit": "ng/m"}, {"measurement": "IC50 (50% inhibition of cell growth)", "setting": "KB 3-1 (MDR1^+++) cells", "value": 200, "unit": "ng/mL"}, {"measurement": "higher sensitivity after inhibition of MDR1 transport function with R-Verapamil", "setting": "KB 3-1 (MDR1^+++) cells", "value": 10, "unit": "fold"}, {"measurement": "increase of IC50 relative to KB 3-1", "setting": "KB 3-1 (MDR1^+++) cells", "value": "at least 8 times"}, {"measurement": "sensitivity with R-Verapamil", "setting": "KB 3-1 (MDR1^+++) cells", "value": "as sensitive as KB 3-1 cells"}, {"measurement": "IC50 (50% inhibition of cell growth)", "setting": "[4]", "value": "> 200", "unit": "ng/mL"}, {"measurement": "higher resistance of RT112 (MDR1, UGT1A1) relative to RT112", "setting": "[5]", "value": 19, "unit": "fold"}, {"measurement": "IC50 (50% inhibition of cell growth)", "setting": "[5]", "value": 75, "unit": "ng/mL"}]}
{"compound": "C[C@H]1O[C@@H](O[C@H]2[C@@H](O)C[C@H](O[C@H]3[C@@H](O)C[C@H](O[C@H]4CC[C@@]5(C)[C@H](CC[C@@H]6[C@@H]5C[C@@H](O)[C@]5(C)[C@@H](C7=CC(=O)OC7)CC[C@]65O)C4)O[C@@H]3C)O[C@@H]2C)C[C@H](O)[C@@H]1O", "note": "[digoxin]", "values": [{"measurement": "Maximal digoxin blood levels (Cmax) at steady state, homozygous T vs C/C MDR1 3435C>T genotype", "setting": "[6]", "value": "statistically significantly different; also recorded: statistically significantly lower"}]}
{"compound": "CO[C@H]1/C=C/O[C@@]2(C)Oc3c(C)c(O)c4c(O)c(c(/C=N/N5CCN(C)CC5)c(O)c4c3C2=O)NC(=O)/C(C)=C\\C=C\\[C@H](C)[C@H](O)[C@@H](C)[C@@H](O)[C@@H](C)[C@H](OC(C)=O)[C@@H]1C", "note": "[rifampicin]", "values": [{"measurement": "effect of rifampicin treatment on MRP1 mRNA expression", "setting": "MRP1 mRNA", "value": "no effect"}]}
{"compound": "irinotecan [CPT-11]", "values": [{"measurement": "IC50 (50% inhibition of cell growth)", "setting": "[2]", "value": 1500, "unit": "ng/mL"}, {"measurement": "IC50 (50% inhibition of cell growth)", "setting": "[3]", "value": 2500, "unit": "ng/mL"}, {"measurement": "IC50 with R-Verapamil", "setting": "[1]; KB 3-1, 3 days, with R-Verapamil 10 μg/ml", "value": 4.5, "unit": "µg/mL"}, {"measurement": "IC50 (50% inhibition of cell growth)", "setting": "[1]; KB 3-1, 3 days, without R-Verapamil", "value": 5000, "unit": "ng/mL"}, {"measurement": "IC50 with R-Verapamil", "setting": "KB 3-1 (MDR1^+++) cells; KB 3-1 (MDR1+++), 3 days, with R-Verapamil 10 μg/ml", "value": 10, "unit": "µg/mL"}, {"measurement": "IC50 (50% inhibition of cell growth)", "setting": "KB 3-1 (MDR1^+++) cells; KB 3-1 (MDR1+++), 3 days, without R-Verapamil", "value": 85000, "unit": "ng/mL"}, {"measurement": "IC50 of RT112 (MDR1, UGT1A1) compared to RT112 cells", "setting": "[5]; RT112 (MDR1, UGT1A1) vs RT112, in words", "value": "two-times higher"}, {"measurement": "IC50 (50% inhibition of cell growth)", "setting": "[5]", "value": 4000, "unit": "ng/mL"}, {"measurement": "total dose excreted in the feces", "setting": "[7]", "value": 64, "unit": "%"}, {"measurement": "diarrhea, occurrence in patients", "setting": "[8]", "value": "up to 88%"}, {"measurement": "increase of irinotecan toxicity-related mortality", "setting": "[9]", "value": "~3", "unit": "times"}]}
